What was measured:
Assay in all cases: relative viability (nuclei count vs DMSO), 5 days (fraction); higher = more cells survive
NCI-H596 = system: NCI-H596
Outline: (§1)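 Lung cancer cell lines, seeded in 1536-well plates, were treated the following day by pin tool with a single drug or with five library-drug doses (not always all listed) in √10 steps on top of a fixed anchor-drug dose. Cells were fixed and nuclei stained in one step after 5 days, and nuclei were counted. Relative viability is the nuclei count for treated wells divided by that for vehicle wells, reported as medians of duplicate plates.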

A-427 = system: A-427
Outline: as §1

RERF-LC-KJ = system: RERF-LC-KJ
Outline: as §1

BEN = system: BEN
Outline: as §1

NCI-H2085 = system: NCI-H2085
Outline: as §1

LCLC-103H = system: LCLC-103H
Outline: as §1

NCI-H520 = system: NCI-H520
Outline: as §1

NCI-H661 = system: NCI-H661
Outline: as §1

ABC-1 = system: ABC-1
Outline: as §1

NCI-H460 = system: NCI-H460
Outline: as §1

NCI-H1666 = system: NCI-H1666
Outline: as §1

`CCNC(=O)c1noc(-c2cc(C(C)C)c(O)cc2O)c1-c1ccc(CN2CCOCC2)cc1` [Luminespib] + CC(C)C[C@H](NC(=O)[C@H](Cc1ccccc1)NC(=O)c1cnccn1)B(O)O [Bortezomib] (partner 0.002 µM) showed a relative viability (NCI-H596; first compound 0.002 µM) of 1.03, a relative viability (NCI-H596; first compound 0.006325 µM) of 0.915 and a relative viability (NCI-H596; first compound 0.06325 µM) of 1.07. For the same compound, the relative viability (NCI-H596; first compound 0.2 µM) was 0.999, the relative viability (A-427; first compound 0.002 µM) was 1.04 and the relative viability (A-427; first compound 0.006325 µM) was 0.926. It also gave a relative viability (A-427; first compound 0.02 µM) of 0.811, a relative viability (A-427; first compound 0.06325 µM) of 0.94 and a relative viability (A-427; first compound 0.2 µM) of 0.584. It also gave a relative viability (RERF-LC-KJ; first compound 0.002 µM) of 1.06, a relative viability (RERF-LC-KJ; first compound 0.006325 µM) of 1.13 and a relative viability (RERF-LC-KJ; first compound 0.02 µM) of 1.06. It also gave a relative viability (RERF-LC-KJ; first compound 0.06325 µM) of 0.69, a relative viability (RERF-LC-KJ; first compound 0.2 µM) of 0.268 and a relative viability (BEN; first compound 0.002 µM) of 0.914. The relative viability (BEN; first compound 0.006325 µM) was 0.542, the relative viability (BEN; first compound 0.02 µM) was 0.438 and the relative viability (BEN; first compound 0.06325 µM) was 0.424. The relative viability (BEN; first compound 0.2 µM) was 0.239, the relative viability (NCI-H2085; first compound 0.002 µM) was 0.979 and the relative viability (NCI-H2085; first compound 0.006325 µM) was 0.94. For the same compound, the relative viability (NCI-H2085; first compound 0.02 µM) was 0.818, the relative viability (NCI-H2085; first compound 0.06325 µM) was 0.509 and the relative viability (NCI-H2085; first compound 0.2 µM) was 0.344. The relative viability (LCLC-103H; first compound 0.002 µM) was 1.07, the relative viability (LCLC-103H; first compound 0.006325 µM) was 1.01 and the relative viability (LCLC-103H; first compound 0.02 µM) was 0.931. The relative viability (LCLC-103H; first compound 0.06325 µM) was 1, the relative viability (LCLC-103H; first compound 0.2 µM) was 0.676 and the relative viability (NCI-H520; first compound 0.002 µM) was 0.556. The relative viability (NCI-H520; first compound 0.006325 µM) was 0.51, the relative viability (NCI-H520; first compound 0.02 µM) was 0.41 and the relative viability (NCI-H520; first compound 0.06325 µM) was 0.103. It also gave a relative viability (NCI-H520; first compound 0.2 µM) of 0.109, a relative viability (NCI-H661; first compound 0.002 µM) of 0.886 and a relative viability (NCI-H661; first compound 0.006325 µM) of 0.773. The relative viability (NCI-H661; first compound 0.02 µM) was 0.685, the relative viability (NCI-H661; first compound 0.06325 µM) was 0.527 and the relative viability (NCI-H661; first compound 0.2 µM) was 0.182. For the same compound, the relative viability (ABC-1; first compound 0.002 µM) was 0.258, the relative viability (ABC-1; first compound 0.006325 µM) was 0.315 and the relative viability (ABC-1; first compound 0.02 µM) was 0.238. The relative viability (ABC-1; first compound 0.06325 µM) was 0.267, the relative viability (ABC-1; first compound 0.2 µM) was 0.255 and the relative viability (NCI-H460; first compound 0.002 µM) was 1.09. It also gave a relative viability (NCI-H460; first compound 0.006325 µM) of 1.14, a relative viability (NCI-H460; first compound 0.02 µM) of 0.0229 and a relative viability (NCI-H460; first compound 0.06325 µM) of 0.011. The relative viability (NCI-H460; first compound 0.2 µM) was 0.0138, the relative viability (NCI-H1666; first compound 0.002 µM) was 0.871 and the relative viability (NCI-H1666; first compound 0.006325 µM) was 0.86. It also gave a relative viability (NCI-H1666; first compound 0.02 µM) of 0.74.

Source: the supplement of paper PMC10307832
